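These data come from cells grown in 96-well plates and exposed to compound for 48 hours at five concentrations. At the GI50, growth is halved. The concentration for full growth arrest is given as TGI.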
Tests used:
Assay in all cases: DTP human tumour cell line panel, 48 h
[1] = system: CAKI-1 renal
[2] = system: SK-MEL-28 melanoma
[3] = system: HCT-116 colon
[4] = system: HL-60(TB) leukemia
[5] = system: MOLT-4 leukemia
[6] = system: MCF7 breast
[7] = system: IGROV1 ovarian
[8] = system: DU-145 prostate
[9] = system: PC-3 prostate
[10] = system: OVCAR-4 ovarian
[11] = system: ACHN renal
[12] = system: OVCAR-8 ovarian
[13] = system: NCI-H460 lung
[14] = system: LOX IMVI melanoma
[15] = system: SK-OV-3 ovarian
[16] = system: A498 renal
[17] = system: SK-MEL-2 melanoma
[18] = system: OVCAR-3 ovarian
[19] = system: HOP-62 NSCLC
[20] = system: RPMI-8226 leukemia
[21] = system: SW-620 colon
[22] = system: SF-268 CNS
[23] = system: K-562 leukemia
[24] = system: EKVX NSCLC
[25] = system: NCI-H226 lung
[26] = system: CCRF-CEM leukemia
[27] = system: KM12 colon
[28] = system: MALME-3M melanoma
[29] = system: M14 melanoma
[30] = system: RXF 393 renal
[31] = system: OVCAR-5 ovarian
[32] = system: UACC-257 melanoma
[33] = system: T-47D breast
[34] = system: SNB-19 CNS
[35] = system: 786-0 renal
[36] = system: HOP-92 NSCLC
[37] = system: NCI/ADR-RES ovarian
[38] = system: SF-539 CNS
[39] = system: MDA-MB-435
[40] = system: BT-549 breast
[41] = system: HCC-2998 colon
[42] = system: HS 578T breast
[43] = system: NCI-H522 lung
[44] = system: HT29 colon
[45] = system: COLO 205 colon
[46] = system: A549 NSCLC
[47] = system: NCI-H23 lung
[48] = system: UO-31 renal
[49] = system: UACC-62 melanoma
[50] = system: HCT-15 colon
[51] = system: SF-295 CNS
[52] = system: U251 CNS
[53] = system: MDA-MB-231 breast
[54] = system: SK-MEL-5 melanoma
[55] = system: SNB-75 CNS
[56] = system: TK-10 renal
[57] = system: SN12C renal

Compound O=c1c2cc(I)ccc2nc(-c2cccs2)n1-c1ccc(S(=O)(=O)Nc2nccs2)cc1 has a GI50 [1] of 21.1 µM, a TGI [1] of 52 µM and a GI50 [2] of 78.5 µM. The TGI [2] was over 100 µM, the GI50 [3] was 37.1 µM and the TGI [3] was over 100 µM. For the same compound, the GI50 [4] was 50.4 µM, the TGI [4] was over 100 µM and the GI50 [5] was 61.4 µM. The TGI [5] was over 100 µM, the GI50 [6] was 41.7 µM and the TGI [6] was over 100 µM. It also gave a GI50 [7] of 33.2 µM, a TGI [7] of over 100 µM and a GI50 [8] of 27.4 µM. The TGI [8] was over 100 µM, the GI50 [9] was 38.4 µM and the TGI [9] was over 100 µM. For the same compound, the GI50 [10] was 86.9 µM, the TGI [10] was over 100 µM and the GI50 [11] was 41.3 µM. The TGI [11] was over 100 µM, the GI50 [12] was 32 µM and the TGI [12] was 98 µM. It also gave a GI50 [13] of 34.2 µM, a TGI [13] of over 100 µM and a GI50 [14] of 28.9 µM. The TGI [14] was 82.8 µM, the GI50 [15] was 66.6 µM and the TGI [15] was over 100 µM. For the same compound, the GI50 [16] was 22.7 µM, the TGI [16] was 71.5 µM and the GI50 [17] was 33.2 µM. The TGI [17] was over 100 µM, the GI50 [18] was 25.3 µM and the TGI [18] was 83.8 µM. For the same compound, the GI50 [19] was 42.8 µM, the TGI [19] was over 100 µM and the GI50 [20] was 38.4 µM. The TGI [20] was over 100 µM, the GI50 [21] was 31.3 µM and the TGI [21] was over 100 µM. For the same compound, the GI50 [22] was 29.6 µM, the TGI [22] was over 100 µM and the GI50 [23] was 36.6 µM. For the same compound, the TGI [23] was over 100 µM, the GI50 [24] was 20.8 µM and the TGI [24] was 55.5 µM. The GI50 [25] was 24.9 µM, the TGI [25] was 74.8 µM and the GI50 [26] was 38.4 µM. For the same compound, the TGI [26] was over 100 µM, the GI50 [27] was 39.2 µM and the TGI [27] was over 100 µM. It also gave a GI50 [28] of 36.7 µM, a TGI [28] of 99.9 µM and a GI50 [29] of over 100 µM. The TGI [29] was over 100 µM, the GI50 [30] was 40 µM and the TGI [30] was over 100 µM. For the same compound, the GI50 [31] was 35.3 µM, the TGI [31] was over 100 µM and the GI50 [32] was 41.8 µM. The TGI [32] was over 100 µM, the GI50 [33] was 34.4 µM and the TGI [33] was over 100 µM. For the same compound, the GI50 [34] was 41.9 µM, the TGI [34] was over 100 µM and the GI50 [35] was 54.1 µM. It also gave a TGI [35] of over 100 µM, a GI50 [36] of 28.8 µM and a TGI [36] of over 100 µM. It also gave a GI50 [37] of 88.1 µM, a TGI [37] of over 100 µM and a GI50 [38] of 22.6 µM. The TGI [38] was 44.5 µM, the GI50 [39] was 36.8 µM and the TGI [39] was over 100 µM. The GI50 [40] was 22.3 µM, the TGI [40] was 60.6 µM and the GI50 [41] was 29.5 µM. For the same compound, the TGI [41] was 62.5 µM, the GI50 [42] was 26.2 µM and the TGI [42] was 84.1 µM. It also gave a GI50 [43] of 25.9 µM, a TGI [43] of 76 µM and a GI50 [44] of over 100 µM. The TGI [44] was over 100 µM, the GI50 [45] was 33.5 µM and the TGI [45] was over 100 µM. It also gave a GI50 [46] of 49.1 µM, a TGI [46] of over 100 µM and a GI50 [47] of 22.5 µM. For the same compound, the TGI [47] was over 100 µM, the GI50 [48] was 22.6 µM and the TGI [48] was 51.6 µM. For the same compound, the GI50 [49] was 22.8 µM, the TGI [49] was 52.1 µM and the GI50 [50] was 42.6 µM. For the same compound, the TGI [50] was over 100 µM, the GI50 [51] was 27.6 µM and the TGI [51] was over 100 µM. For the same compound, the GI50 [52] was 27.2 µM, the TGI [52] was 81.7 µM and the GI50 [53] was 25.1 µM. It also gave a TGI [53] of 73.5 µM, a GI50 [54] of 19.7 µM and a TGI [54] of 44.2 µM. For the same compound, the GI50 [55] was over 100 µM, the TGI [55] was over 100 µM and the GI50 [56] was 35.2 µM. For the same compound, the TGI [56] was over 100 µM, the GI50 [57] was 37.2 µM and the TGI [57] was over 100 µM.

Source: PubChem BioAssay (NCI)
